Read-outs that look alike come from different tables or passages of the source.
Columns and labels:
[1] = target: T1, Plasmodium falciparum protein kinase 6 (PK6) (Plasmodium falciparum, UniProt Q8IDW1); test: biochemical
T1 construct: 6-Histidine (N); made in house
T1 sequence (Q8IDW1 1-305): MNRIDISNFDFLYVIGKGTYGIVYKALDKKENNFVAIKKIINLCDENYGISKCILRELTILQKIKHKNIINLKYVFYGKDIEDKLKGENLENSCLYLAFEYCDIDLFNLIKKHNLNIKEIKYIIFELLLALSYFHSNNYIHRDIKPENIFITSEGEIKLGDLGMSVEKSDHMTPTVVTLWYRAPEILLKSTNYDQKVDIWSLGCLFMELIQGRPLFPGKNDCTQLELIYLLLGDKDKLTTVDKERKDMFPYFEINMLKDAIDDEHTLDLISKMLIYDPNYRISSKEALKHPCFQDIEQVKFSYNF

HepG2 cells = conditions: Nature 2010, cited from earlier work
P. falciparum 3D7 cells = conditions: Nature 2010, cited from earlier work
DD2 [2] = tested on: DD2; parameters: method as in F.J. Gamo et al., Nature 2010; conditions: downloaded from ChEMBL, ref F.J. Gamo et al., Nature 2010; cited from earlier work
3D7 PFLDH [3] = tested on: 3D7 PFLDH; parameters: method as in F.J. Gamo et al., Nature 2010; concentration or dose not given beside the values; conditions: downloaded from ChEMBL, ref F.J. Gamo et al., Nature 2010; cited from earlier work
[4] = target: T2, Plasmodium falciparum calcium-dependent protein kinase 1 (CDPK1) (Plasmodium falciparum, UniProt P62344); test: CDPK1 Kinase-Glo ATP-consumption screen and dose-response; assay type: biochemical; conditions: hits below 1 uM; read-out: CDPK1 IC50
T2 construct: 6-Histidine (N); made in house
T2 sequence (P62344 whole entry): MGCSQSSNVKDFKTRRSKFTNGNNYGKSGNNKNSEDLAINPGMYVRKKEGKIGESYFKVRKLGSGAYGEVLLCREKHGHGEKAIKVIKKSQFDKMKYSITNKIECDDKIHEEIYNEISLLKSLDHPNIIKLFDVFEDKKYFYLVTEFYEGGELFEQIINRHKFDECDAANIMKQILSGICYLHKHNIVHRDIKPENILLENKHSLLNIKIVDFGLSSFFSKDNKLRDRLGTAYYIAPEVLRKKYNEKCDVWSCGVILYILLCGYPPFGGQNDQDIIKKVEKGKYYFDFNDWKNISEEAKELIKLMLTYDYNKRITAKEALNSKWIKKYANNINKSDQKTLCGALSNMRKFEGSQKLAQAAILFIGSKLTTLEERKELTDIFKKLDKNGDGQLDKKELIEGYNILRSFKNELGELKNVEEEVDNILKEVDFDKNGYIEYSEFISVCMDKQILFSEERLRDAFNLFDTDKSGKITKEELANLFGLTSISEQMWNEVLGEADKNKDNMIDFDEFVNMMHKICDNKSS
In short: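 Single-point testing used 1 μM final compound, then dose-response, against CDPK4 and CDPK1 with Syntide-2 (40 μM) as substrate. After 90 min, reactions were halted by 5 mM EGTA, and kinase activity was inferred from depleted ATP via Kinase-Glo luminescence.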

DD2 [5] = tested on: DD2; parameters: method as in F.J. Gamo et al., Nature 2010; conditions: P. falciparum Dd2; downloaded from ChEMBL ref F.J. Gamo et al., Nature 2010; cited from earlier work
3D7 PFLDH [6] = tested on: 3D7 PFLDH; parameters: method as in F.J. Gamo et al., Nature 2010; conditions: downloaded from ChEMBL ref F.J. Gamo et al., Nature 2010; cited from earlier work
[7] = hits below 1 uM, read-out: PK6 IC50
[8] = HepG2, downloaded from ChEMBL, ref F.J. Gamo et al.
[9] = 3D7, downloaded from ChEMBL, ref F.J. Gamo et al.
[10] = HepG2 cells, downloaded from ChEMBL ref F.J. Gamo et al.
[11] = P. falciparum 3D7, downloaded from ChEMBL ref F.J. Gamo et al.

Structure (SMILES)	IC50 [1, 7]	PCT_INHIB_HEPG2 (HepG2 cells; [8])	PCT_IHB_3D7 (P. falciparum 3D7 cells; [9])	pXC50_3D7 (P. falciparum 3D7 cells; [9])	PCT_INHB_DD2 (DD2 [2])	PCT_INHIB_3D7_PFLDH (3D7 PFLDH [3])	IC50 [4]	PCT_INHIB_HEPG2 (HepG2 cells; [10])	PCT_IHB_3D7 (P. falciparum 3D7 cells; [11])	pXC50_3D7 (P. falciparum 3D7 cells; [11])	PCT_INHB_DD2 (DD2 [5])	PCT_INHIB_3D7_PFLDH (3D7 PFLDH [6])	IC50 [1]
CS(=O)(=O)Cc1ccc(Nc2ncc(Cl)c(Nc3cccnc3C(N)=O)n2)cc1.Cl [TCMDC-134165]	691 nM	54%	97%	6.062	97%	0%	–	–	–	–	–	–	–
CS(=O)(=O)Cc1cccc(Nc2ncc(Cl)c(Nc3cccnc3C(N)=O)n2)c1.Cl [TCMDC-134166]	74 nM	56%	96%	6.775	97%	0%	–	–	–	–	–	–	–
CC(=O)Nc1ccc(Nc2ncc([N+](=O)[O-])c(Nc3ccccc3C(N)=O)n2)cc1.Cl [TCMDC-138731]	128 nM	42%	98%	6.437	97%	2%	–	–	–	–	–	–	–
CC(=O)c1ccc(NC(=O)Nc2ccc(N(C)c3ccnc(Nc4cccc(CS(C)(=O)=O)c4)n3)cc2)cc1 [TCMDC-138736]	138 nM	86%	100%	6.9122	98%	0%	–	–	–	–	–	–	–
CN(c1ccc2c(c1)nc(NCc1ccc(F)cc1)n2C)c1ccnc(Nc2ccc(CS(C)(=O)=O)cc2)n1.Cl [TCMDC-138747]	844 nM	48%	97%	6.082	79%	7%	–	–	–	–	–	–	–
CCNC(=O)Nc1ccc(N(C)c2ccnc(Nc3ccc(CS(C)(=O)=O)cc3)n2)cc1.Cl [TCMDC-138759]	269 nM	0%	100%	7.051	99%	2%	–	–	–	–	–	–	–
CN(c1ccc(NC(=O)Nc2cccc(Cl)c2)cc1)c1ccnc(N)n1.Cl [TCMDC-138782]	402 nM	75%	100%	6.202	40%	0%	–	–	–	–	–	–	–
CC(C)(CNC(=O)C1CCN(CCOc2ccc(Cl)cc2)CC1)c1nc(-c2ccc(Cl)c(O)c2)c(-c2ccncc2)[nH]1.Cl [TCMDC-141124]	–	–	–	–	–	–	471 nM	40	100	6.149	5	7	–
CC(C)(CNC(=O)C1CCN(CCOc2ccc(F)c(F)c2)CC1)c1nc(-c2ccc(Cl)c(O)c2)c(-c2ccncc2)[nH]1.Cl [TCMDC-141136]	–	–	–	–	–	–	664 nM	41	100	6.5	19	0	–
CC(C)(CNC(=O)C1CCN(Cc2ccc(Cl)cc2)CC1)c1nc(-c2ccc(Cl)c(O)c2)c(-c2ccncc2)[nH]1.Cl [TCMDC-141138]	–	–	–	–	–	–	347 nM	36	100	6.206	83	0	–
Cl.Oc1cc(-c2nc(C3(CNCc4ccc(Cl)cc4)CCCCC3)[nH]c2-c2ccncc2)ccc1Cl [TCMDC-141155]	–	–	–	–	–	–	846 nM	35	100	6.903	99	2	–
CC(C)(CNCCOc1ccc(Cl)cc1)c1nc(-c2ccnc(N)n2)c(-c2ccc(Cl)c(O)c2)[nH]1.Cl [TCMDC-141161]	–	–	–	–	–	–	755 nM	45	97	6.079	19	0	–
CC(C)(CNCc1ccc(C(F)(F)F)cc1)c1nc(-c2ccnc(N)n2)c(-c2ccc(Cl)c(O)c2)[nH]1.Cl [TCMDC-141162]	–	–	–	–	–	–	353 nM	32	100	6.817	37	0	–
CC(C)(CNCc1ccc(F)c(F)c1)c1nc(-c2ccnc(N)n2)c(-c2ccc(Cl)c(O)c2)[nH]1.Cl [TCMDC-141163]	–	–	–	–	–	–	469 nM	41	99	6.131	79	0	–
CN(C)CCOc1ccc(-c2cc(-c3ccc(Cl)c(O)c3)c(-c3ccnc(N)n3)o2)cc1 [TCMDC-141332]	–	–	–	–	–	–	168 nM	43	100	5.879	95	2	–
CN(C)CCOc1ccc(-c2cc(-c3ccnc(N)n3)c(-c3ccc(Cl)c(O)c3)o2)cc1 [TCMDC-141338]	–	–	–	–	–	–	684 nM	14	100	6.01	91	5	–
CN(c1ccc(NC(=O)Nc2cc(C(F)(F)F)ccc2F)cc1)c1ccnc(NCCN2CCOCC2)n1.O=C(O)C(F)(F)F [TCMDC-141590]	520 nM	67%	97%	6.29	73%	0%	–	–	–	–	–	–	–
CCN(CC)CCNc1nccc(N(C)c2ccc(NC(=O)Nc3cc(C(F)(F)F)ccc3F)cc2)n1.O=C(O)C(F)(F)F [TCMDC-141632]	–	74%	97%	6.26	25%	1%	–	–	–	–	–	–	917 nM
CCN(CC)CCCNc1nccc(N(C)c2ccc(NC(=O)Nc3cc(C(F)(F)F)ccc3F)cc2)n1.O=C(O)C(F)(F)F [TCMDC-141634]	705 nM	96%	94%	5.978	19%	0%	–	–	–	–	–	–	–

Reference: paper PMC4774911, “Biochemical Screening of Five Protein Kinases from Plasmodium falciparum against 14,000 Cell-Active Compounds” (PLoS ONE, 2016)
